The subject of this experiment is 4 BRAF(v600E) cell lines (A375, RKO, Colo 201, SK-MEL-28). In words: pERK modulation in BRAF V600E control cell lines. It counts as cell-based, human. The protocol: 217 The coordinates and structure factors of the structures have been deposited at the
218 Protein Data Bank with the accession codes PDB Code 6GJ5, 6GJ6, 6GJ7, 6GJ8.
221 Measurements of various protein–protein interactions were performed using the Alpha
222 Screen technology developed by Perkin Elmer. Recombinant RAS proteins (H-, N-, K-
223 RAS variants; all KRAS variants are based on KRAS isoform 4B (uniprot id P01116-2);
224 KRAS (G12D) 1-169, N-terminal 6His-tag, C-terminal avi-tag was from Xtal
225 BioStructures, Inc., KRAS (G12C) 1-169, C-terminal avi-tag, biotinylated, mutations:
226 C51S, C80L, C118S, NRAS(wt) 1-172, C-terminal avi-tag, biotinylated; HRAS(wt) 1-
227 166, C-terminal avi-tag, biotinylated). Biotinylation was performed in vitro with
228 recombinant BirA biotin-protein ligase as recommended by the manufacturer (Avidity […]
231 PI3KA- RBD (160-317, N-term-HIS_GST-tag) were expressed as glutathione S […]
245 for 60 min in the dark at room temperature. Single oxygen induced fluorescence was
246 measured at an Enspire multimode plate reader (Perkin Elmer) according to the
247 manufacturer’s recommendations. Data were analyzed using the GraphPad Prism data […]
313 added according to manufacturer’s instructions. Fluorescence intensity was determined
314 using a fluorescence reader (2030 VICTOR X5, Perkin Elmer). […]
319 MAPK pathway signaling (pERK, pAKT quantification) […]

`Cn1cnc(Cn2ccc3ccc(CNCc4[nH]c5ccccc5c4[C@H]4NC(=O)c5ccc(O)cc54)cc32)c1` [Compound 1]: the “inhibition of pERK” value is recorded as “no inhibition of pERK”.

For the origin of these results see paper PMC6689897, “Drugging an undruggable pocket on KRAS” (Proceedings of the National Academy of Sciences of the …, 2019).
